The text below walks through data of US20220288004A1, “TREATMENT AND PREVENTION OF AGING RELATED-DISEASE AND/OR AGING BY THE INHIBITION OF SPHINGOLIPIDS” (ECOLE POLYTECHNIQUE FEDERALE DE LAUSANNE (EPFL), priority 2019, published 2022).

Molecules are shown by their SMILES.

Assay [1] concerns mdx mice. Put plainly: Transplantation of MuSCs from myriocin treated donors into cardiotoxin-injured mdx recipients. It is filed as in vivo, mouse. The text has this:
Decline in tissue regenerative potential is a major hallmark of mammalian aging, including skeletal muscle. It was next asked the question whether myriocin treatment induces functional improvement of MuSCs, boosting their regenerative capacity. MuSCs from aged mice treated or untreated with myriocin for 5 months were isolated, and transplanted into tibialis anterior (TA) muscles of recipient mice. The recipient mice were either aged (20-month-old) C57Bl/6JRj or aged (1-year-old) mdx mice, a mouse model of Duchenne muscular dystrophy lacking dystrophin protein (FIG. 4a). Before MuSC transplantation, injury was induced by cardiotoxin injection to TA of all recipient mice. […] At both 7 and 14 days after transplantation the inflammatory area was also smaller (FIG. 12a-b) in mdx recipients of MuSCs isolated from myriocin treated mice. […] Thus, transplantation of MuSCs derived from myriocin treated donors induce major morphological improvements following cardiotoxin-induced muscle injury.
Cardiotoxin-induced muscle damage and MuSC transplantation. […]
Histology. […] Microscopy images of fluorescence from muscle fibers were analyzed using the ImageJ software. Centralized nuclei percent, minimal Feret diameter and cross-sectional area in TA muscles were determined using the ImageJ software quantification of laminin, dystrophin, and DAPI-stained muscle images from VS120-S6-W slides scanner (Olympus). […] The mean cross-sectional area of muscle fibers was calculated as the average cross-sectional area of 2,000 fibers per from sample. 7-8 mouse samples per condition were used for histological quantification of donor mice. The eMyHC quantification is expressed as proportion of eMyHC positive signal over total TA cross sectional area. Following MuSC injection in CTX injected recipient mice, inflammation representing the regenerative stage of muscle was quantified by ImageJ software as proportion of inflammatory area over total area of the TA muscle cross section. The PAX7-positive cells were quantified as the average number of cells per field of more than 30 randomly chosen fields from a mouse TA. […]

For assay [2], the system named is aged C57Bl/6JRj mice. Put plainly: Oral glucose tolerance test in aged mice. Format: in vivo, mouse. The conditions noted are these: aged chow-fed myriocin treated mice. The source says: Frailty is associated with multimorbidity, including diabetes.
Assay [3] has as its system APPSwe-expressing C2C12 myoblasts. Put plainly: Proteostat staining of APPSwe-expressing C2C12 myoblasts. It is filed as cell-based, mouse. Particulars: 30 μM MYR for 24 h. The procedure:
FIG. 16. Quantitative Proteostat signal normalized over the number of cells in human primary myoblasts from IBM donors (above) and APPSwe-expressing C2C12 myoblasts (below) decreases after treatment with 30 μM MYR for 24 h. Values are expressed as mean±s.e.m. ***P:0.001; ****P:0.0001. Differences between two groups were assessed using Student's two-tailed t-tests (error bars: 95% confidence intervals).

Assay [4] has as its system freshly isolated MuSCs from aged C57BL/6JRj mice. Put plainly: Ex vivo analysis of MuSCs cultured in myriocin containing medium. Format: cell-based, mouse. The procedure: Ex vivo analysis of MuSCs. MuSCs were isolated as described above, and seeded in 96- or 48-well plates. The cells were incubated in 30 μM myriocin containing medium (Ham's F-10 nutrient mixture, FBS 20%, basic fibroblast growth factor 2.5 ng/mL, penicillin 100 U/mL, streptomycin 100 μg/mL) for 72 hours. PFA 4% was applied for 15 min, the cells were washed three times for 10 min with PBS, and were blocked in 2% BSA in PBS. The cells were then incubated in primary antibodies MYOD (1:50, LabForce) and MYOG (1:50, Santa Cruz) overnight at 4° C. Secondary antibodies were coupled with Alexa-488 or Alexa-568 fluorochromes (Life Technology) and mounted with Dako Mounting Medium. Leica DMI 4000 microscope was used to image the cells. Quantification of the MYOD+ and MYOG+ cell number was based on more than 500 cells per condition.

For the compound `CCCCCCC(=O)CCCCCCC=CCC(O)C(O)C(N)(CO)C(=O)O` (centres unmarked) [myriocin, 2-Amino-3,4-dihydroxy-2-(hydroxymethyl)-14-oxoicos-6-enoic acid], the “inflammatory area of TA” value in assay [1] (7 and 14 days after transplantation) is “smaller”. Also, in assay [1] (7 days after transplantation), the “count of PAX7+ cells in TA” value is “elevated count” and the “myogenesis of dystrophin-positive fibers” value is listed as “stimulated myogenesis”. Also, the glucose tolerance entry in assay [2] is “improved”. The “Proteostat signal normalized over the number of cells” value in assay [3] is listed as “decreases”. In addition, in assay [4] (30 μM myriocin, 72 h, vs DMSO), the MYOD protein level entry was “elevated” and the MYOG protein level result is “elevated”. The “Ki67+ MuSC count” value in assay [4] (MuSCs from untreated aged mice, 72 h in myriocin containing medium vs DMSO) was “higher”.
